According to publication PMC11486130, “Structure-guided discovery of novel dUTPase inhibitors with anti-Nocardia activity by computational design” (Journal of Enzyme Inhibition and Medicinal Chemistry, 2024):

Columns and labels:
NsdUTPase A22V = biological target: T1, NsdUTPase A22V (Nocardia seriolae, UniProt A0ABF7PKI9, A22V); test: Kd to A22V mutant of NsdUTPase; type: binding, N. seriolae
T1 sequence (A0ABF7PKI9 1-166 A22V): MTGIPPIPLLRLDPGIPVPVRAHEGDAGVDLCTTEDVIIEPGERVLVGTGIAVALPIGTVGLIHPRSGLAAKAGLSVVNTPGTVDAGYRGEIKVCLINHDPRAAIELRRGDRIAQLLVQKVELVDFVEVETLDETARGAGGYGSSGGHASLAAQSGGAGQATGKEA

NsdUTPase K93A = biological target: T2, NsdUTPase K93A (Nocardia seriolae, UniProt A0ABF7PKI9, K93A); test: Kd to K93A mutant of NsdUTPase; type: binding, N. seriolae
T2 sequence (A0ABF7PKI9 1-166 K93A): T1 sequence (A0ABF7PKI9 1-166 A22V)

| SMILES | Kd (NsdUTPase A22V) | Kd (NsdUTPase K93A) |
| --- | --- | --- |
| C=CCn1c(/C=C/c2ccccc2)nc2cc(C(F)(F)F)ccc21 [4b, (E)-1-Allyl-2-styryl-5-(trifluoromethyl)-1H-benzo[d]imidazole] | 5.34 µM | 50.7 µM |
| C=CCn1c(-c2ccc(Oc3ccccc3)cc2)nc2cc(C)ccc21 [12b, 1-Allyl-5-methyl-2-(4-phenoxyphenyl)-1H-benzo[d]imidazole] | 3.16 µM | 40.9 µM |
